SMILES strings stand for the structures. Structures can show the parent of a compound that is named as a salt.

Data set [1] is described as follows: conversion test to the parent drug (alprenolol) in buffer solution having the pH of 7.4. In kind it is physicochemical. The following applies: hydrochloride, Britton-Robinson buffer pH 7.4, 37° C.; for half-life: read-out: Half-life time (T 1/2) (converted); for 50% producing time of the parent drug (T' 1/2): unit assumed. The method, then:
Assuming the absorption and distribution of the derivatives in vivo, conversion tests to the parent drug (alprenolol) were carried out by the following method in buffer solutions having the pH of 2, 4 and 7.4.
Britton-Robinson buffer solutions having the pH of 2, 4 and 7.4 were prepared. To each 800 μl of the buffer solution, 200 μl of an aqueous solution of each compound which had been adjusted to a concentration of 2 mg/ml were added. The resulting mixture was incubated at 37° C.
From each reaction mixture, 100 μl of sample were collected after 0, 1, 3, 5, 7 and 24 hours, diluted with a developer and subjected to high performance liquid chromatography (abbreviated as HPLC) under following conditions.
(d) Conditions of HPLC in the conversion test;
(d) Conditions of HPLC in the above conversion test;
As to the compounds (hydrochloride) described in the above (1)-(4), the conversion rate to the parent drug was examined in a buffer solution having the pH of 7.4 assuming blood pH. Table 1 illustrates half-life time (T 1/2) of each compound in the above buffer solution and 50% producing time (T' 1/2) of the parent drug in the same buffer solution.

Data set [2] can be described thus: oral administration to dogs, plasma levels of the parent drug and AUC (improving effect on bioavailability). The format is in vivo, Female beagle dogs. The conditions noted are these: beagle dogs; for relationship between dose and AUC (area under the plasma concentration curve) (FIG. 14): alprenolol hydrochloride 2-30 mg/kg, hydrochlorides of (1) and (2) equivalent to 10 and 20 mg/kg; for plasma concentration of the parent drug (FIG. 13): hydrochlorides, dose equivalent to 20 mg/kg of alprenolol hydrochloride, 0.5-6 hours, versus alprenolol hydrochloride. The method, then:
In the next step, the alprenolol drivative of this invention was orally administered to dogs as experimental animals. The results described below were obtained by investigating the improving effect on bioavailability. Female beagle dogs (a body weight of about 10 kg) were used as the experimental animals. The 12 dogs were divided into 2 groups of 6 dogs and each group was alternately subjected to the experiment with intervals of 2 weeks. To the dogs, 2, 5, 10, 20 and 30 mg/kg of alprenolol hydrochloride 13.50 and 27.00 mg/kg of the compound (1) hydrochloride, (equivalent to 10, 20 mg/kg of the alprenolol hydrochloride, respectively) and 13.99 and 27.98 mg/kg of the compound (2) hydrochloride (equivalent to 10 and 20 mg/kg of alprenolol hydrochloride, respectively) were orally administered. Blood was collected respectively after 0.5, 1, 2, 4 and 6 hours. The plasma separated from the blood was extracted with ethanol. Plasma levels of the parent drug were determined by HPLC. The conditions for the HPLC analysis are shown as follows: |Column ODS 4.6.phi. × 250 mm |Flow rate 0.8 ml/min |Eluent CH3 CN:CH3 OH:50 mM KH2 PO4

For data set [3] the following is noted: cited from earlier work.

With `C=CCc1ccccc1OCC(CNC(C)C)OC(=O)CCCC(=O)O` (centres unmarked) [(2), pentanedioic acid mono[1-{(2-allylphenoxy)methyl}-{2-(1-methylethyl)amino}ethyl]ester hydrochloride], in data set [1], the half-life is 4.9 h and the 50% producing time of the parent drug (T' 1/2) amounted to 5 h. For the same compound, in data set [2], the “relationship between dose and AUC (area under the plasma concentration curve) (FIG. 14)” value (“relationship between dose and AUC” for short) is recorded as “linear relationships”; the “plasma concentration of the parent drug (FIG. 13)” value is listed as “significantly high plasma concentration of the parent drug”.

Take `C=CCc1ccccc1OCC(O)CNC(C)C` (centres unmarked) [alprenolol]: in data set [3], the “bioavailability of alprenolol in the oral administration” value is 15%.

As for `C=CCc1ccccc1OCC(O)CNC(C)C` (centres unmarked) [alprenolol hydrochloride, reference compound], the “relationship between dose and AUC” value in data set [2] is “non-linear relationship with the threshold due to the first-pass effect”.

Consider `C=CCc1ccccc1OCC(CNC(C)C)OC(=O)/C=C\C(=O)O` (centres unmarked) [(4), (z)-Butenedioic acid mono[1-{(2-allylphenoxy)methyl}-{2-(1-methylethyl)amino}ethyl]ester], for which, in data set [1], the half-life is 0.9 h and the 50% producing time of the parent drug (T' 1/2) amounted to 3 h.

With `C=CCc1ccccc1OCC(CNC(C)C)OC(=O)CCCC(=O)OCC` (centres unmarked) [(3), 4-Ethoxycarbonylbutanoic acid mono[1-{(2-allylphenoxy)methyl}-{2-(1-methylethyl)amino}ethyl]ester], in data set [1], the half-life was 1.3 h and the 50% producing time of the parent drug (T' 1/2) turned out to be 2 h.

Take `C=CCc1ccccc1OCC(CNC(C)C)OC(=O)CCC(=O)O` (centres unmarked) [(1), Butanedioic acid mono[1-{(2-allylphenoxy)methyl}{2-(1-methylethyl)amino}ethyl]ester]: in data set [1], the half-life was 7.4 h and the 50% producing time of the parent drug (T' 1/2) stood at 5 h. Moreover, in data set [2], the “relationship between dose and AUC” value is reported as “linear relationships”; the “plasma concentration of the parent drug (FIG. 13)” value is on record as “significantly high plasma concentration of the parent drug”.

(Values after patent publication US4927959A, “Alprenolol derivatives” (Snow Brand Milk Products Co., Ltd., priority 1987, dated 1990).)
